Paper PMC5518293, “An Iterative Module in the Azalomycin F Polyketide Synthase Contains a Switchable Enoylreductase Domain” (Angewandte Chemie (International Ed. in English), 2017)

Biological target: T1, AzlA (Streptomyces sp. 211726, UniProt A0A1W6GWW1)
T1 construct: recombinant multienzyme, loading module (ACPL) plus extension module 1 (KS-AT-DH-ER-KR-ACP); mutant stated expressed in E. coli BAP1, holo-ACP1
Test: one-pot reconstitution, LC-ESI-HRMS of acyl-ACP1 and of hydrolysed products
Type: biochemical
Details: extender unit; with Azl4, Azl5, 4-guanidinobutyric acid and added stand-alone holo-ACP1

In the case of `CC(C)(COP(=O)(O)OP(=O)(O)OC[C@H]1O[C@@H](n2cnc3c(N)ncnc32)[C@H](O)[C@@H]1OP(=O)(O)O)[C@@H](O)C(=O)NCCC(=O)NCCSC(=O)CC(=O)O` [malonyl‐CoA], the “one-pot reconstitution, LC-ESI-HRMS of acyl-ACP1 and of hydrolysed products” value was “recruits malonyl‐CoA as extender unit”.
